In article PMC8950700 (Pharmaceuticals, 2022):
pIC50: −log10 of the molar value. Like-named read-outs stand apart in the source and are kept apart here.

Assays:
H5N1wild virus [1] = type: cell-based
[2] = system: A/chicken/Egypt/B13825A/2017 (H5N1wild); assay: microbe, parasite or virus in culture; type: cell-based
H5N1N295S virus [3] = type: cell-based, influenza A virus
[4] = mouse, in vivo
H1N1 virus [5] = type: cell-based
H5N1wild virus [6] = details: mouse, in vivo
H5N1V116A virus [7] = type: cell-based, influenza A virus; details: read-out: IC50 (50% Inhibitory Concentration) H5N1V116A
H5N1N295S virus [8] = type: cell-based, influenza A virus; details: read-out: IC50 (50% Inhibitory Concentration) H5N1N295S
H1N1 virus [9] = details: mouse, in vivo
H5N1V116A virus [10] = type: cell-based, influenza A virus
in vitro = details: dog
[11] = system: A/California/04/2009 (H1N1); assay: microbe, parasite or virus in culture; type: cell-based
H5N1V116A virus [12] = type: cell-based, influenza A virus; remark: listed apart in the source
H5N1N295S virus [13] = type: cell-based, influenza A virus; remark: listed apart in the source
H5N1wild virus [14] = assay: microbe, parasite or virus in culture; type: cell-based
H1N1 virus [15] = type: cell-based, influenza A virus; details: 5 µM
[16] = Influenza A virus, read-out: IC50 (50% Inhibitory Concentration) H5N1wild
[17] = Influenza A virus, H1N1, read-out: IC50 (50% Inhibitory Concentration) H1N1
[18] = Influenza A virus, H1N1, read-out: IC50 H1N1 (Figure 5)

| Compound | inhibition in the viral HA titer, H5N1wild (H5N1wild virus [1]) | pIC50 [2, 16] | inhibition in the viral HA titer, H5N1N295S (H5N1N295S virus [3]) | external observations of mice [4] | ALT ([4]; 20 mg/kg) | AST ([4]; 20 mg/kg) | Creatinine ([4]; 20 mg/kg) | Urea ([4]; 20 mg/kg) | ALT ([4]; 40 mg/kg) | AST ([4]; 40 mg/kg) | Creatinine ([4]; 40 mg/kg) | Urea ([4]; 40 mg/kg) | ALT ([4]; 80 mg/kg) | inhibition in the viral HA titer, H1N1 (H1N1 virus [5]) | pIC50 (H5N1V116A virus [7]) | pIC50 (H5N1N295S virus [8]) | inhibition in the viral HA titer, H5N1V116A (H5N1V116A virus [10]) | CC50 at 72 h (in vitro) [µM] | pIC50 [11, 17] | viral titer in lung tissue (TCID50), H1N1 (H1N1 virus [9]) | other results |
| --- | --- | --- | --- | --- | --- | --- | --- | --- | --- | --- | --- | --- | --- | --- | --- | --- | --- | --- | --- | --- | --- |
| CC(=O)OC[C@H]1O[C@@H](OCc2cn(Cc3nc4ccccc4o3)nn2)[C@H](OC(C)=O)[C@@H](OC(C)=O)[C@H]1OC(C)=O [Compound 8b, (2R,3S,4S,5R,6R)-2-(Acetoxymethyl)-6-((1-(benzo[d]oxazol-2-ylmethyl)-1H-1,2,3-triazol-4-yl)methoxy)tetrahydro-2H-pyran-3,4,5-triyl Triacetate] | more than 80% | 5.06 | not more than 60% | normal in external observations | 10.66 ± 4.32 | 15 ± 3.41 | 0.17 ± 0.04 | 9.00 ± 3.81 | 8.20 ± 2.62 | 15.77 ± 0.9944 | 0.13 ± 0.04 | 6.66 ± 1.54 | 6.72 ± 1.47 | more than 80% | 4.79 | 4.71 | more than 80% | 788 | 5.77 | – | AST ([4]; 80 mg/kg): 16 ± 5.099; Creatinine ([4]; 80 mg/kg): 0.10 ± 0.02; Urea ([4]; 80 mg/kg): 7.32 ± 3.90; survival after infection with H5N1wild (H5N1wild virus [6]): 60%; survival after infection with H1N1 (H1N1 virus [9]): 60%; pIC50 [11, 18]: 5.77 |
| CC(=O)O[C@@H]1[C@@H](OC(C)=O)[C@H](OCc2cn(Cc3nc4ccccc4[nH]3)nn2)OC[C@H]1OC(C)=O [Compound 9a, (2R,3R,4S,5R,)-2-((1-((1H-Benzo[d]imidazol-2-yl)methyl)-1H-1,2,3-triazol-4-yl)methoxy)tetrahydro-2H-pyran-3,4,5-triyl Triacetate] | not more than 50% | 5.24 | not more than 50% | normal in external observations | 9.64 ± 3.64 | 20 ± 6.957 | 0.13 ± 0.04 | 7.32 ± 2.09 | 10.64 ± 1.38 | 13.77 ± 1.298 | 0.13 ± 0.04 | 7.32 ± 0.48 | 8.67 ± 2.16 | more than 80% | 5.25 | 5.25 | more than 80% | 795 | 5.78 | significantly reduced the propagation | AST ([4]; 80 mg/kg): 15.33 ± 0.9686; Creatinine ([4]; 80 mg/kg): 0.17 ± 0.04; Urea ([4]; 80 mg/kg): 4.64 ± 1.12; virus shedding in the nasal wash (EID50), H5N1wild (H5N1wild virus [6]): reduced the viral shedding; survival after infection with H1N1 (H1N1 virus [9]): 60%; virus shedding in the nasal wash (EID50), H1N1 (H1N1 virus [9]): significantly reduced the viral titer; pIC50 [11, 18]: 5.78 |
| CC(=O)O[C@@H]1[C@@H](OC(C)=O)[C@H](OCc2cn(Cc3nc4ccccc4s3)nn2)OC[C@H]1OC(C)=O [Compound 9c, (2R,3R,4S,5R)-2-((1-(Benzo[d]thiazol-2-ylmethyl)-1H-1,2,3-triazol-4-yl)methoxy)tetrahydro-2H-pyran-3,4,5-triyl Triacetate] | more than 80% | 5.65 | not more than 50% | normal in external observations | 7.60 ± 1.56 | 11.93 ± 3.765 | 0.14 ± 0.05 | 7.90 ± 3.13 | 7.80 ± 2.07 | 9.689 ± 2.922 | 0.14 ± 0.05 | 3.64 ± 1.49 | 5.54 ± 1.22 | more than 80% | 5.78 | 4.26 | more than 80% | 302 | 5.79 | reduced the propagation | AST ([4]; 80 mg/kg): 12.33 ± 3.169; Creatinine ([4]; 80 mg/kg): 0.13 ± 0.04; Urea ([4]; 80 mg/kg): 4.88 ± 2.13; survival after infection with H5N1wild (H5N1wild virus [6]): 80%; viral titer in lung tissue (TCID50), H5N1wild (H5N1wild virus [6]): reduced the propagation; virus shedding in the nasal wash (EID50), H5N1wild (H5N1wild virus [6]): reduced the viral shedding; survival after infection with H1N1 (H1N1 virus [9]): full protection from mortality; pIC50 [11, 18]: 5.78 |
| CCOC(=O)C1=C[C@H](N)C(NC(C)=O)[C@H](OC(CC)CC)C1 (stereo partly drawn) [oseltamivir, reference compound] | ≤ 20% | 5.00 | ≤ 20% | – | – | – | – | – | – | – | – | – | – | not more than 80% | 3.51 | 4.59 | not more than 80% | 581 | 5.78 | did not affect | viral inhibition in the count of plaques, H5N1V116A (H5N1V116A virus [12]): ~40%; pIC50 ([2]; Influenza A virus, read-out: IC50 H5N1wild (Figure 5)): 5.00; survival after infection with H5N1wild (H5N1wild virus [6]): 60%; viral titer in lung tissue (TCID50), H5N1wild (H5N1wild virus [6]): reduced the propagation; viral inhibition in the count of plaques, H5N1N295S (H5N1N295S virus [13]): ~8.5%; inhibition at 5 µM (H5N1wild virus [14]; Influenza A virus, read-out: viral inhibition in the count of plaques, H5N1wild): ~90%; mortality after infection with H1N1 (H1N1 virus [9]): 60% |
| CC(=O)N[C@H]1[C@H]([C@H](O)[C@H](O)CO)OC(C(=O)O)=C[C@@H]1N=C(N)N [zanamivir, reference compound] | not more than 25% | – | not more than 25% | – | – | – | – | – | – | – | – | – | – | not more than 80% | 3.90 | 4.82 | not more than 80% | 589 | – | reduced the titration | viral inhibition in the count of plaques, H5N1V116A (H5N1V116A virus [12]): 60%; pIC50 ([2]; read-out: IC50 (50% Inhibitory Concentration) H5N1wild): 4.98; viral titer in lung tissue (TCID50), H5N1wild (H5N1wild virus [6]): reduced the titration; viral inhibition in the count of plaques, H5N1N295S (H5N1N295S virus [13]): 31%; viral inhibition in the count of plaques, H5N1wild (H5N1wild virus [14]): 69.2%; viral inhibition in the count of plaques, H1N1 (H1N1 virus [15]): 96.5%; mortality after infection with H1N1 (H1N1 virus [9]): 40%; virus shedding in the nasal wash (EID50), H1N1 (H1N1 virus [9]): significantly reduced the viral titer; pIC50 ([11]; read-out: IC50 (50% Inhibitory Concentration) H1N1): 5.78 |
